Where two headings read alike, the source gives them in different places.

Results on 1 compound are retold here after US20260284011A1, “COMPOUNDS FOR RESTORING SUSCEPTIBILITY TO BETA-LACTAM ANTIBIOTICS” (UNIVERSITY OF NOTRE DAME DU LAC, priority 2023, published 2026).

The nature of this data set: PK study, plasma and thighs. The format is in vivo, mice. The settings on record: mouse; for Cmax at 4 h: sc, single subcutaneous dose 25 mg·kg^−1; for Cmax at 4 h / concentration at 8 h: mice. How it is done:
Pharmacokinetics of Compound 4 and In Vivo Efficacy. We next evaluated the pharmacokinetics (PK) of compound 4 and its distribution to the thighs (sites of infection in the disease model) after a single subcutaneous dose at 25 mg·kg^−1 to mice.
Animals. Outbred 8-week-old female ICR mice for PK and neutropenic thigh infection studies were purchased from Envigo, Indianapolis, IN. The average weight of the mice for the PK study was 30 g (range 26.1 to 33.1 g); mice in the neutropenic thigh infection weights ranged from 24.2 to 37.7 g and were on average 29 g at the initiation of the study. Mice were housed in polycarbonate shoebox cages (for the PK study) or in disposable cages (for the infection studies) with ¼-inch corncob (The Andersons Inc., Maumee, OH) and Alpha-Dri (Shepherd Specialty Papers, Inc., Richland, MI) bedding with a 12-h light/dark cycle at 72° F. The animals were given food (Teklad 2918 irradiated extruded rodent diet) and water ad libitum. The food and water were autoclaved for the infection studies. All procedures were performed in accordance with and approved by the University of Notre Dame Institutional Animal Care and Use Committee.
PK study. Mice (n=15) were given a single subcutaneous dose of compound 4 at 25 mg·kg^−1 (100 μL of 7.5 mg-mL-1 solution in 20% DMSO/20% Tween-80/60% sterilized water). At 0.5, 1, 2, 4, and 8 h, mice were euthanized. Terminal blood was collected by cardiac puncture into heparinized (sodium heparin, Sigma-Aldrich, St. Louis, MO) syringes, and centrifuged (20,000×g at 4° C. for 15 min) to obtain plasma. A 60-μL aliquot of plasma was mixed with 60 μL of a 10 μg·mL^−1 solution of internal standard in acetonitrile. After centrifugation (17,000×g for 10 min), a 60-μL of the supernatant was taken for ultraperformance liquid chromatography (UPLC) analysis with UV detection.
Thighs were excised, weighed, and mixed with 100 μL of 10 μg·mL^−1 of internal standard in acetonitrile. Acetonitrile (900 μL) was added, and the mixture was homogenized on a Bullet blender (Next Advance, Inc., Averill Park, NY). After centrifugation at 17,000×g for 10 min, the supernatant was collected. The extraction was repeated two additional times. The combined supernatants were concentrated on a speed vac. The residue was dissolved in 100 μL of acetonitrile, and the mixture was centrifuged. A 60-μL aliquot of the supernatant was placed in an autosampler vial.
Plasma and thigh samples were analyzed on a Waters Acquity UPLC (Waters Corp., Milford, MA) coupled with a diode array detector with UV detection at 320-330 nm. A C18 Atlantis™ T3 column 2.1 i.d.×100 mm length 3 μm-particle size column was used at a flow rate of 0.5 mL/min. The gradient consisted of 0.5-min from 80% A/20% B to 65% A/35% B, 4.5-min to 25% A/75% B, 0.5-min to 65% A/35% B, 2-min to 80% A/20% B, where A=0.1% formic acid in water and B=0.1% formic acid in acetonitrile. Internal standard and compound 4 eluted at 4.2 and 4.6 min, respectively.
Calibration curves containing known concentrations of compound 4 (ranging from 0 to 200 μg·g^−1 tissue for thighs or 0 to 40 μg·mL^−1 for plasma) and internal standard in blank control thigh tissue or control plasma were prepared. Concentrations in the thighs and plasma were determined from the calibration curve regression parameters relative to internal standard.

As for `N#Cc1ccc2nc(SCB(O)O)n(Cc3ccc(C(F)(F)F)cc3C(F)(F)F)c2c1` [Compound 4, (((1-(2,4-bis(trifluoro-methyl)benzyl)-6-cyano-1H-benzo[d]imidazol-2-yl)thio)methyl)boronic acid], under “plasma and thigh, plasma and thighs, 25 mg·kg^−1 sc, read-out: time at which maximum concentrations were achieved”, the Tmax stood at 4 h. In addition, the Cmax at 4 h runs as follows: (plasma, read-out: Maximum concentration in plasma) 8500 ng/mL; (thigh, read-out: Maximum concentration in thighs) 28000 ng/mL. Besides, the concentration at 8 h amounted to 3900 ng/mL (plasma, 25 mg·kg^−1 sc, read-out: concentration at 8 h in plasma) and 20000 ng/mL (thigh, 25 mg·kg^−1 sc, read-out: concentration at 8 h in thighs).
